In patent US20180055915A1, “COMPOSITIONS AND METHODS FOR TREATING PROSTATE CANCER” (UNIVERSITY OF ROCHESTER, priority 2016, published 2018):
Residues, ends and D or L forms follow the SMILES beside them. *: point of attachment. Cbz = O=C(OCc1ccccc1)*

How the values were obtained:
[1] = test system: wild type AR, ARv7, AR-F876L; details: cited from earlier work
[2] = test system: SF2; experiment: SF2 protein level; format: cell-based
Procedure: (§1) Cells were lysed in lysis buffer and proteins (50 μg) were separated on 10% SDS/PAGE gel and then transferred onto PVDF membranes (Millipore, Billerica, Mass.). After blocking membranes with 5% milk, they were incubated with appropriate dilutions of specific primary antibodies (anti-AR (N-20), anti-SF2, anti-GFP, anti-GAPDH, anti-a-tubulin). The blots were incubated with HRP-conjugated secondary antibodies and visualized using ECL system (Thermo Fisher Scientific, Rochester, N.Y.).

[3] = test system: EnzR2-CWR22Rv1 cells; experiment: MTT cell proliferation assay, EnzR2-CWR22Rv1; format: cell-based; details: FIG. 2E
Procedure: (§2) Cells were seeded in 24-well plates (5×10^3 cells/500 μL media per well) and cultured for 0, 2, 4 and 6 days. Cells were harvested and cell numbers and absorbance were calculated and recorded after using yellow tetrazolium MTT (3-(4, 5-dimethylthiazolyl-2)-2,5-diphenyltetrazolium bromide agent.

[4] = target: T1, ARv7 (Homo sapiens, UniProt P10275); experiment: ARv7 protein expression/degradation in CRPC cells (western blot); format: cell-based
T1 construct: endogenous in cells; host or cells: EnzR1 C4-2, EnzR3 C4-2B, EnzR2 CWR22Rv1
T1 sequence (P10275 1-644 isoform P10275-3): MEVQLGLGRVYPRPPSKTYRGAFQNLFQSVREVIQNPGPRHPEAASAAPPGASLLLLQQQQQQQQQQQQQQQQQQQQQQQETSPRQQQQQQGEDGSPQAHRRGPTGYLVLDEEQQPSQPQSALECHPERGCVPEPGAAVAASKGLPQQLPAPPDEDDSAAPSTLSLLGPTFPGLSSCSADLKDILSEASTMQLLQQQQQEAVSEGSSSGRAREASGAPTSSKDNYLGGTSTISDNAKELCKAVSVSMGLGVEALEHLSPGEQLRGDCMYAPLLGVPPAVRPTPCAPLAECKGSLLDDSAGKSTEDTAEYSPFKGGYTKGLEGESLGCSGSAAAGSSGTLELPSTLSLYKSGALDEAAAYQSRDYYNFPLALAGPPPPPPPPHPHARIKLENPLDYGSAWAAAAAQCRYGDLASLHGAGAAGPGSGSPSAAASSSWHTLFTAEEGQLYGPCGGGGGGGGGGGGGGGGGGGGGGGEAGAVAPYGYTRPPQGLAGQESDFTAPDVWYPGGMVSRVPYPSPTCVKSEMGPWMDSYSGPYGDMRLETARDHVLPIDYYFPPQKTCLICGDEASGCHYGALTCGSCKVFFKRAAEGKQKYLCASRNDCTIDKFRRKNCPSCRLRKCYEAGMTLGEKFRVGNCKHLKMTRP
Procedure: (§3) To further dissect the mechanism(s) why Cis can decrease ARv7 (and AR) protein expression, first assayed was the Cis effects on ARv7 (and AR) protein stability with protein biosynthesis inhibitor, cycloheximide (CHX) and proteasome inhibitor MG132 in EnzR2-CWR22Rv1 cells.
(§4) For protein degradation, EnzR C4-2 cells were treated with 1 μg/mL Cisplatin for 6 hr. Cycloheximide or MG132 was added for another 4 hrs. For ubiquitination, human kidney epithelial HEK293T cells were grown in DMEM media with 10% FCS. Cells were plated at ˜60% confluency and pGFP-ubiquitin, pAR were transiently transfected into cells using CaCl2 reagent. After 48 hrs. of transfection, cells were treated with 1 μg/mL Cisplatin for 6 hrs. […], MG132, was added for another 4 hrs. Cell extracts were analyzed for AR degradation or AR-ubiquitination by using western blot.
as §1

[5] = test system: glucocorticoid receptor (GR); experiment: Glucocorticoid receptor expression; format: cell-based
[6] = test system: AR mRNA; experiment: AR mRNA expression (real-time PCR); format: cell-based; details: FIG. 5A
Procedure: (§5) Total RNAs were isolated using Trizol reagent (Invitrogen, Grand Island, N.Y.). 2 μg of total RNA was subjected to reverse transcription using Superscript III transcriptase (Invitrogen). Quantitative real-time PCR (qRT-PCR) was conducted using a Bio-Rad CFX96 system with SYBR green to determine the mRNA expression level of a gene of interest. Expression levels were normalized to the expression of GAPDH.

[7] = test system: AR; experiment: AR protein expression/degradation in CRPC cells (western blot); format: cell-based
Procedure: as §3, §4, §1

[8] = test system: estrogen receptor b (ERb); experiment: Estrogen receptor b expression; format: cell-based
[9] = test system: ARv7 mRNA; experiment: ARv7 mRNA expression (real-time PCR); format: cell-based
Procedure: as §5

[10] = test system: lncRNA RP11-473I1.9; experiment: lncRNA RP11-473I1.9 expression (real-time PCR); format: cell-based; details: FIG. 4G
Procedure: as §5

[11] = test system: AR promoter; experiment: AR promoter luciferase assay (pAR-luc) in EnzR2-CWR22Rv1 cells; format: cell-based; details: 1 ug/mL Cis, FIG. 5B
Text: In addition to function via altering the AR-ubiquitination to decrease ARv7 (and AR) protein expression and modulating the Malat1/SF2 RNA splicing complex to decrease ARv7 mRNA biosynthesis/expression, it is interesting to see the potential 3rd molecular mechanism at transcriptional regulation to alter the AR expression for Cis to decrease ARv7 mRNA expression. […] A 3.6 kb AR promoter was then constructed into pGL3 luciferase vector (pAR-luc) and transfected pAR-luc into EnzR2-CWR22Rv1 cells for luciferase assay.

[12] = test system: Enz-S1-C4-2 cells; experiment: Enz sensitivity after 2 months treatment (MTT proliferation); format: cell-based
Procedure: as §2

[13] = test system: EnzR2-CWR22Rv1 cells; experiment: Orthotopic EnzR xenograft in castrated nude mice; format: in vivo
[14] = test system: Malat1; experiment: Malat1 mRNA expression (real-time PCR); format: cell-based; details: EnzR1-C4-2 cells, FIG. 4F
Procedure: as §5

[15] = test system: EnzR1-C4-2 cells; experiment: MTT cell proliferation assay, EnzR1-C4-2; format: cell-based
Procedure: as §2

[16] = test system: EnzR3-C4-2B cells; experiment: MTT cell proliferation assay, EnzR3-C4-2B; format: cell-based; details: FIG. 2H
Procedure: as §2

[17] = test system: AR-ubiquitin complex; experiment: AR-ubiquitination immunoprecipitation in 293T cells; format: cell-based, human; details: 293T cells with AR and ubiquitin-GPF, FIG. 4D
Procedure: Then examined was whether ubiquitination involves in ARv7 (and AR) degradation. First added were AR and ubiquitin-GPF in 293T cells, and then applied the immunoprecipitation assay to examine Cis effect on AR-ubiquitination.
as §4

[18] = target: T2, AR mutant AR876 (Homo sapiens, UniProt P10275, F877L); experiment: AR876 expression in PC3 cells stably transfected with AR876-cDNA; format: cell-based; details: FIG. 1G
T2 construct: expressed in transfected cells; host or cells: PC3
T2 sequence (P10275 1-920 F877L): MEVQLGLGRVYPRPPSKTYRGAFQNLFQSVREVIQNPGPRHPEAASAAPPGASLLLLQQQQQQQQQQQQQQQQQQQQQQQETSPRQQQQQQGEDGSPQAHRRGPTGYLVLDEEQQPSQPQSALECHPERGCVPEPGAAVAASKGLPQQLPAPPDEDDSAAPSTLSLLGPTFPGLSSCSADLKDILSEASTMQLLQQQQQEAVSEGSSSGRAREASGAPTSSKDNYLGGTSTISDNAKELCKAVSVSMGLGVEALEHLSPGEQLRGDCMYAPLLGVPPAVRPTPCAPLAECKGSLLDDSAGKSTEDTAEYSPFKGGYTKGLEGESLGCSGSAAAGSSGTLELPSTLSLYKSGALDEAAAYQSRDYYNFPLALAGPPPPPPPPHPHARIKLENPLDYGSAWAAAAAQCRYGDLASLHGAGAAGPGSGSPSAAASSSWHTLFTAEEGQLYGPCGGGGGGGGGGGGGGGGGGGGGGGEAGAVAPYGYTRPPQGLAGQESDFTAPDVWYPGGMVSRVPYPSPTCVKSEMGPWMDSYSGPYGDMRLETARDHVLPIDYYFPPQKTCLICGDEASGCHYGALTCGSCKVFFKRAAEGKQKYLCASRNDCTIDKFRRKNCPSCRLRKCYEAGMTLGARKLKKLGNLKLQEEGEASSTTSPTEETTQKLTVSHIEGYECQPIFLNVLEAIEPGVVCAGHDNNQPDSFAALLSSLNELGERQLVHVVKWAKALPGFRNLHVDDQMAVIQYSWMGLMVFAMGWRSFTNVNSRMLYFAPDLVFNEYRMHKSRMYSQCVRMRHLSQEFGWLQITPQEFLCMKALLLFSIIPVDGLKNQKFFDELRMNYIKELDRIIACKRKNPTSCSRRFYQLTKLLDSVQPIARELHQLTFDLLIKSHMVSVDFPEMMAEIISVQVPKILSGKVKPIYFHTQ
Procedure: as §1

[19] = test system: cPARP; experiment: Cell apoptosis by cPARP level; format: cell-based
[20] = CRPC patients; cited from earlier work
[21] = test system: PCa cell; details: in vitro and in vivo; cited from earlier work
[22] = EnzR2-CWR22Rv1 cells, after 6 hrs treatment, FIG. 4A
[23] = EnzR3-C4-2 cells, Cis at 1 ug/mL, FIG. 2J
[24] = EnzS1-C4-2 cells, Cis at 1-2 ug/mL, FIG. 2I

SF2, sequence (Q07955 whole entry): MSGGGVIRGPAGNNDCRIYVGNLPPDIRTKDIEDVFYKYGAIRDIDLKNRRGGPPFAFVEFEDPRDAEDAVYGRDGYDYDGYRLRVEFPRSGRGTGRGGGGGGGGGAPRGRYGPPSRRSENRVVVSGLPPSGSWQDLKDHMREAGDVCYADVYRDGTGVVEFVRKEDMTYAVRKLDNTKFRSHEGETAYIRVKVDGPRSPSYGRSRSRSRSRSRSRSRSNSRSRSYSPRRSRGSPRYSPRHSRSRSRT

CC(O)(CS(=O)(=O)c1ccc(F)cc1)C(=O)Nc1ccc(C#N)c(C(F)(F)F)c1 (stereo not shown) [Casodex]
degradation of wild type AR, ARv7 and AR mutants including AR-F876L [1]: not

COc1ccc(/C=C/C(=O)/C=C(O)/C=C/c2ccc(OC)c(OC)c2)cc1OC [ASC-J9®]
degradation of wild type AR, ARv7 and AR mutants including AR-F876L [1]: could degrade both wild type AR and the AR variant ARv7 or AR mutants including AR-F876L

(SP-4-2)-diamminedichloroplatinum(II) [Cis]
SF2 protein expression [2]: may decrease SF2 protein expression in a dose-dependent manner
IC50 (cell growth) [3]: 5 µg/mL
IC50 ([3]; read-out: IC50 (cell growth)): 16.5 µM
ARv7 (and AR877) degradation ([4]; CWR22Rv1 cells, Cis plus CHX compared to CHX alone, FIG. 4C): can facilitate ARv7 (and AR877) degradation
ARv7 expression ([4]; EnzR1-C4-2 cells, increasing Cis, FIG. 1B): diminishing ARv7 was detected upon increasing Cis
ARv7 protein degradation [4, 22]: could degrade ARv7 (and AR)
GR expression [5]: little effect to decrease
AR mRNA [6]: could also decrease AR mRNA in a dose-dependent manner
AR expression ([7]; EnzR1-C4-2 cells, FIG. 1B): could suppress the AR
AR protein degradation [7, 22]: could degrade ARv7 (and AR)
AR degradation [7, 23]: may degrade AR
AR degradation [7, 24]: could degrade AR
AR expression ([7]; EnzS1-C4-2 cells, FIG. 1A): could suppress the AR
ERb expression [8]: little effect to decrease
ARv7 mRNA expression ([9]; Enz-S1-C4-2 cells, Enz plus Cis (0.2 ug/mL), FIG. 3D): suppressed the Enz-increased ARv7 significantly
ARv7 mRNA expression ([9]; EnzR1-C4-2 cells, FIG. 4E): decreased in dose-dependent manner
lncRNA RP11-473I1.9 expression [10]: little effect
AR promoter activity (pAR-luc luciferase) [11]: can also decrease AR mRNA expression at transcriptional level via altering AR promoter activity
Enz sensitivity ([12]; after 10 uM Enz plus 0.2 ug/mL (0.66 uM) Cis for 2 months, FIG. 3C): 62%
tumor progression ([13]; Enz 3.5 mg/kg every other day i.p. with vs without Cis 3.5 mg/kg weekly i.v., 3 weeks): can increase/restore the Enz sensitivity to further suppress the EnzR3-C4-2B tumor progression
tumor expression of ARv7 (and AR), Malat1 and SF2 (immunohistochemistry) ([13]; tumor received Cis+Enz): lower expression of ARv7 (and AR), as well as Malat1 and SF2
Malat1 mRNA expression [14]: decreased in dose-dependent manner
suppression of cell growth ([15]; 20 uM Enz combined with 2 ug/mL (6.6 uM) Cis, FIG. 2B): could suppress EnzR1-C4-2 cell growth
IC50 (cell growth) ([15]; Cis combined with 20 uM Enz, FIG. 2C): ~5 µg/mL
IC50 ([15]; Cis combined with 20 uM Enz, FIG. 2C, read-out: IC50 (cell growth)): ~16.5 µM
IC50 (cell growth) [16]: 3.3 µg/mL
IC50 ([16]; read-out: IC50 (cell growth)): 10.9 µM
AR-ubiquitin complex [17]: may increase the AR-ubiquitin complex
AR876 expression [18]: can also decrease
cell apoptosis (cPARP) [19, 23]: little change in cPARP
cell apoptosis (cPARP) [19, 24]: little change in cPARP

CNC(=O)c1ccc(N2C(=S)N(c3ccc(C#N)c(C(F)(F)F)c3)C(=O)C2(C)C)cc1F [Enz, 4-(3-(4-Cyano-3-(trifluoromethyl)phenyl)-5,5-dimethyl-4-oxo-2-thioxoimidazolidin-1-yl)-2-fluoro-N-methylbenzamide]
ARv7 mRNA expression ([9]; Enz-S1-C4-2 cells, Enz treatment, FIG. 3D): led to increase ARv7 mRNA expression
Enz sensitivity ([12]; Enz-S1-C4-2 cells before long-term treatment, FIG. 3A): 54%
Enz sensitivity ([12]; after 10 uM Enz alone for 2 months, FIG. 3B): 38%
extension of overall survival (average) [20]: 4.8 months
suppression of cell growth ([15]; 20 uM Enz alone, FIG. 2A): little effect

O=C(Nc1ccc([N+](=O)[O-])cc1Cl)c1cc(Cl)ccc1O [niclosamide]
PCa cell growth [21]: suppress the PCa cell growth in vitro and in vivo

CC(C)C[C@@H](C=O)NC(=O)[C@H](CC(C)C)NC(=O)[C@H](CC(C)C)NC(=O)OCc1ccccc1 [MG132] (Cbz-Leu-Leu-Leu-aldehyde)
effect on Cis-induced ARv7 (and AR) degradation ([4]; MG132 with Cis 6 hrs, FIG. 4B): attenuate/inhibit the effect of Cis on ARv7 (and AR) degradation
